In BindingDB's records for doi:10.1016/j.bmc.2009.08.047 (University of Padova, 2009):
pKi: −log10 of the molar value.

Molecular target: Casein kinase II subunit alpha (Rattus norvegicus, UniProt P19139)
Test: CK2 Phosphorylation Assay
Conditions: pH 7.5; 37 °C
Protocol: Inhibitory effect of test compound was assessed in reaction buffer containing purified CK2, synthetic peptide substrate, and [gamma-33P]ATP. Assays were stopped by addition of 0.5 M orthophosphoric acid before spotting aliquots onto phosphocellulose filters. Filters were washed in 75 mM phosphoric acid (5-10 mL/each) four times then once in methanol and dried before counting. Inhibition constants were determined from Lineweaver-Burk double-reciprocal plots of data obtained in experiments run at fixed concentration of peptide substrate and at increasing concentrations of ATP either in the absence or in the presence of variable concentrations of inhibitor. Alternatively inhibition constants were also deduced from the IC50/Ki Cheng-Prusoff relationship.

Chain of Casein kinase II subunit alpha (P19139 whole entry): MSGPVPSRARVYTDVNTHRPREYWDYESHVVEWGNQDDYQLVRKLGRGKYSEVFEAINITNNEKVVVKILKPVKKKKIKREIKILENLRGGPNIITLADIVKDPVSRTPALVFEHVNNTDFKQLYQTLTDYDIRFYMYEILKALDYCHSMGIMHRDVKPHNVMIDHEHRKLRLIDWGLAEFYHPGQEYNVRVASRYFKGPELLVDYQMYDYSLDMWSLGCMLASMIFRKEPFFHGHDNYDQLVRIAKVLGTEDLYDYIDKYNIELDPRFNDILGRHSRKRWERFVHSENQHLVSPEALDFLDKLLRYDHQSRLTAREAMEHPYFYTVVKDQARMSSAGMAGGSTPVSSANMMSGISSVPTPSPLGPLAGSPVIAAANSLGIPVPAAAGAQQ

pKi: 7.00
SMILES: Brc1c(I)c(I)c2[nH]cnc2c1I [iodinated benzimidazole, 3a]
